The target in the first assay is T1, Solute carrier family 12 member 5 (Homo sapiens, UniProt Q9H2X9).
T1 sequence (Q9H2X9 whole entry): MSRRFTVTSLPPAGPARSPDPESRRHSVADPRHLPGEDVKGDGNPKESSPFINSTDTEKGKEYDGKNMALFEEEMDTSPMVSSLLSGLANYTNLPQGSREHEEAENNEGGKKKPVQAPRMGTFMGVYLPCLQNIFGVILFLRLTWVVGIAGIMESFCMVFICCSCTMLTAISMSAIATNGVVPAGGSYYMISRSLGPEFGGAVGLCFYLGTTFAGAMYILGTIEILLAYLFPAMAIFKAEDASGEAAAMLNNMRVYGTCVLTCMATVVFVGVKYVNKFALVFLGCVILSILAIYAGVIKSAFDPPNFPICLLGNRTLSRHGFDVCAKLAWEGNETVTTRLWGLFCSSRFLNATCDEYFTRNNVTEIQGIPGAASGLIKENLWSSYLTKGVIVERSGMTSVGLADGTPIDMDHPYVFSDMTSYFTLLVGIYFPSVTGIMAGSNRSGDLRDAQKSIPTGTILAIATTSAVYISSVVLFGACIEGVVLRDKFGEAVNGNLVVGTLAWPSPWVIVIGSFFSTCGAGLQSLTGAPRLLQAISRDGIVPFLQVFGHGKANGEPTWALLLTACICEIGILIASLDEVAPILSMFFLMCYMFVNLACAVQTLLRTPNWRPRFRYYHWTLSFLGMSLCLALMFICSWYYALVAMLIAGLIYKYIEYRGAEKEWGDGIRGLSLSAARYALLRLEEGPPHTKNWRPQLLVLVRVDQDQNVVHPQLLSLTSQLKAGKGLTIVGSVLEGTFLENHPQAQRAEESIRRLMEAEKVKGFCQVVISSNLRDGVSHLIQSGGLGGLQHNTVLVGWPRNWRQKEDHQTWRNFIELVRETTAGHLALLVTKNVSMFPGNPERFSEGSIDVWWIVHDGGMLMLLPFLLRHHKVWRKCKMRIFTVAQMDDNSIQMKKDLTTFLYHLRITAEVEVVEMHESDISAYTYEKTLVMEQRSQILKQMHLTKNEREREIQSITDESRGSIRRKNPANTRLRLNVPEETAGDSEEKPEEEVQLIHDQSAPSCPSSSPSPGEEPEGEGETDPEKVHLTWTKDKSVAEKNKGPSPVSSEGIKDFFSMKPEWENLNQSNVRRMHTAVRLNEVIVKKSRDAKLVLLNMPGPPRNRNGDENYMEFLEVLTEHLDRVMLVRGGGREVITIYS
As to the kind of experiment: KCC2 modulator potency by thallium flux, dose response, cell-based, HEK293 KCC2, FluoZin-2 fluorescence (AID 1736).
Conditions: not given
Turning to `O=C(CNC(=O)/C(=C/c1ccccc1)NC(=O)c1ccc(Br)cc1)OCc1ccccc1` [(phenylmethyl) 2-[[(Z)-2-[(4-bromophenyl)carbonylamino]-3-phenyl-prop-2-enoyl]amino]ethanoate], a half-maximal response (EC50) required 1.15 µM. Same read-out and setting: next, `O=C(CSc1ccc(-c2ccccc2)nn1)Nc1ccc2c(c1)OCCO2` [MLS000724887]: 3.48 µM; `O=C(C1CCN(c2nc3ccc(Br)cc3s2)CC1)N1CCC2(CC1)OCCO2` [8-{[1-(6-bromo-1,3-benzothiazol-2-yl)piperidin-4-yl]carbonyl}-1,4-dioxa-8-azaspiro[4.5]decane]: 14.3 µM. On the same count and under the same terms, next, `CCn1c(SCC(=O)Nc2ccc(Cl)cc2)nc2nc3c(cc2c1=O)CCCC3` [MLS000589154]: 28.2 µM; `CC(=O)NCC1CCCN(c2nc3nonc3nc2N(C)Cc2ccccc2)C1` (stereo unspecified) [MLS000731683]: 2.68 µM; `C=CCn1c(Cc2cccs2)nnc1SCC(=O)c1ccc2ccccc2c1` [1-(2-naphthalenyl)-2-[[4-prop-2-enyl-5-(thiophen-2-ylmethyl)-1,2,4-triazol-3-yl]thio]ethanone]: 4.42 µM.

Turning to `COC(=O)[C@@H](NC(=O)O[C@@H]1C(=O)c2ccc(OC)cc2O[C@H]1c1cccc(C(F)(F)F)c1)C(C)C` [(2S)-2-[[(2S,3S)-4-keto-7-methoxy-2-[3-(trifluoromethyl)phenyl]chroman-3-yl]oxycarbonylamino]-3-methyl-butyric acid methyl ester], the EC50 (commonly the concentration at which the effect is half-maximal) was found to be 1.24 µM. The molecule `CCc1cc(C(=O)N2CCCC(CNC(=O)c3ccc(-c4ccccc4)cc3)C2)no1` (stereo unspecified) [MLS000731765] showed an EC50 of 3.2 µM. In turn, `Cn1c(C(=O)NCCN2CCN(c3ccccc3F)CC2)cc2c(=O)n(C)c3ccccc3c21` [MLS000118132] gave an EC50 of 3.19 µM. On the same count and under the same terms, next, `CCOc1ccc2nc(Sc3cc(O)n(-c4cccc(OC)c4)c3O)sc2c1` [3-(6-Ethoxy-benzothiazol-2-ylsulfanyl)-1-(3-methoxy-phenyl)-pyrrolidine-2,5-dione]: 244 µM; `Cc1ccc2c(c1)nnn2C1CCN(S(=O)(=O)c2cccc(S(=O)(=O)N(C)C)c2)CC1` [MLS000033642]: 3.38 µM.

`O=C(/C=C/c1ccco1)N1CCC(Cc2ccccc2)CC1` [(E)-1-(4-benzylpiperidin-1-yl)-3-(furan-2-yl)prop-2-en-1-one] displayed an EC50 of 6.56 µM. `O=C(NCCc1c[nH]c2ccccc12)c1cc(S(=O)(=O)N2CCCCC2)ccc1N1CCOCC1` [N-[2-(1H-indol-3-yl)ethyl]-2-morpholin-4-yl-5-piperidin-1-ylsulfonylbenzamide]: a half-maximal effect (EC50) was put at 208 µM. On the same count and under the same terms, next, `O=C(Cn1cnc2c(nnn2-c2ccccc2)c1=O)NCCc1ccccc1` [2-(7-keto-3-phenyl-triazolo[4,5-d]pyrimidin-6-yl)-N-phenethyl-acetamide]: 27.5 µM. The same measure, in the same setting: next, `O=C(NCc1ccc2c(c1)OCO2)c1ccc(COc2cc(Cl)ccc2Cl)o1` [5-[(2,5-dichlorophenoxy)methyl]-N-piperonyl-2-furamide]: 6.14 µM; `O=C(CSc1ccc(-c2cccs2)nn1)Nc1ccccc1F` [MLS000621184]: 5.12 µM; `CC(C)(CN=C(S)NCCc1ccccc1)CN=C(S)NCCc1ccccc1` [1-[2,2-dimethyl-3-(2-phenylethylcarbamothioylamino)propyl]-3-(2-phenylethyl)thiourea]: 165 µM. On the same count and under the same terms, next, `COc1ccccc1C(=O)NC1CCN(C(=S)NCCc2ccccc2)CC1` [2-methoxy-N-[1-(2-phenylethylcarbamothioyl)piperidin-4-yl]benzamide]: 6.66 µM. `O=C(C1CCN(S(=O)(=O)c2cccc3nsnc23)CC1)N1CCc2ccccc2C1` [2-{[1-(2,1,3-benzothiadiazol-4-ylsulfonyl)piperidin-4-yl]carbonyl}-1,2,3,4-tetrahydroisoquinoline] displayed an EC50 of 69.7 µM. `CS(=O)(=O)N(CC(=O)N1CCN(c2ccc(F)cc2)CC1)c1ccc(F)c(Cl)c1` [MLS000531433]: a half-maximal effect (EC50) was put at 5.57 µM.

As to `CCOC(=O)c1cc2c(ccn2-c2ccc(F)cc2)n1CC(=O)NC(C)(C)C` [4-[2-(tert-butylamino)-2-keto-ethyl]-1-(4-fluorophenyl)pyrrolo[3,2-b]pyrrole-5-carboxylic acid ethyl ester], the EC50 amounted to 51100 µM. Same read-out and setting: then `COc1ccc(S(=O)(=O)N(CCc2ccccc2)CC(=O)O)cc1Cl` [2-[(3-chloranyl-4-methoxy-phenyl)sulfonyl-(2-phenylethyl)amino]ethanoic acid], with 7.63 µM. With `S=C(NCc1ccccc1Cl)Nc1ccccc1Cl` [1-(2-chlorobenzyl)-3-(2-chlorophenyl)thiourea], a half-maximal effect (EC50) was put at 204 µM. The same measure, in the same setting: then `CCN(CC)c1ccc2c(C)c(-c3ccc(N)cc3)c(=O)oc2c1` [3-(4-aminophenyl)-7-(diethylamino)-4-methyl-1-benzopyran-2-one], with 0.986 µM; and `Cn1c(SCc2ccccc2Cl)nc2ccccc21` [2-[(2-chlorobenzyl)thio]-1-methyl-1H-benzimidazole], with 260 µM. With `COc1ccc(-c2cc(CCCC(=O)NCCc3ccccc3)no2)cc1` [4-[5-(4-methoxyphenyl)-1,2-oxazol-3-yl]-N-(2-phenylethyl)butanamide], the midpoint of the response, the EC50, lay at 0.725 µM. The same measure, in the same setting: then `COc1ccc(NC(=S)NC(N)=Nc2nc(C)c3ccccc3n2)cc1` [(1E)-1-[amino-[(4-methyl-2-quinazolinyl)amino]methylidene]-3-(4-methoxyphenyl)thiourea], with 4.61 µM. For `O=S1(=O)N=C(N2CCN(Cc3ccccc3)CC2)c2ccccc21` [3-(4-Benzyl-piperazin-1-yl)-benzo[d]isothiazole 1,1-dioxide], the EC50 came out at 6.74 µM. In the case of `O=C(CNC(=O)/C(=C\c1ccc(Br)cc1)NC(=O)c1ccccc1)OCc1ccccc1` [(phenylmethyl) 2-[[(E)-2-benzamido-3-(4-bromophenyl)prop-2-enoyl]amino]ethanoate], the EC50 is 0.993 µM. On the same count and under the same terms, next, `O=C(CSc1nnc(C2CC2)n1Cc1ccccc1)c1cc2ccccc2o1` [1-(1-benzofuran-2-yl)-2-[(4-benzyl-5-cyclopropyl-1,2,4-triazol-3-yl)sulfanyl]ethanone]: 21.2 µM; `COc1ccc(S(=O)(=O)N2CCC(C(=O)N3CCc4ccccc4C3)CC2)cc1C` [2-({1-[(4-methoxy-3-methylphenyl)sulfonyl]-4-piperidinyl}carbonyl)-1,2,3,4-tetrahydroisoquinoline]: 5.4 µM; `CN(C)S(=O)(=O)c1cccc(NC(=O)c2cc3c(cc2Cl)N2CCCCC=C2NS3(=O)=O)c1` [2-chloranyl-N-[3-(dimethylsulfamoyl)phenyl]-5,5-bis(oxidanylidene)-8,9,10,11-tetrahydro-7H-azepino[2,1-c][1,2,4]benzothiadiazine-3-carboxamide]: 281 µM.

For `Cc1nn(-c2nc3ccccc3[nH]2)c(N)c1-c1ccccc1` [MLS000063763], it took 21.3 µM to reach a half-maximal effect (EC50). Still for that read-out and setting: then `CCc1ccc(OCCNC(=O)c2ccccc2SCc2ccccc2)cc1` [2-(benzylthio)-N-[2-(4-ethylphenoxy)ethyl]benzamide], with 7.39 µM; and `Cc1cc(C)c(C#N)c(N2CCN(Cc3ccccc3)CC2)n1` [2-(4-benzyl-1-piperazinyl)-4,6-dimethylnicotinonitrile], with 11.3 µM. In turn, `O=C(Nc1ccc(Cc2ccncc2)cc1)c1cccc([N+](=O)[O-])c1` [3-Nitro-N-(4-pyridin-4-ylmethyl-phenyl)-benzamide] showed an EC50 of 15.3 µM. `Cc1ccc(C(=O)O)cc1-c1ccc(C=C2NC(=O)N(c3ccccc3)C2=O)o1` [3-[5-[(E)-(2,5-dioxo-1-phenylimidazolidin-4-ylidene)methyl]furan-2-yl]-4-methylbenzoic acid] gave an EC50 of 14.8 µM.

`CC(C)NC(=S)NNC1=c2cc(C(C)C)ccc2=NC1=O` [SMR000242097] showed an EC50 of 5.13 µM.

Still in this assay, the particulars now being: inactive by the depositor's call.
Regarding `COC(=O)[C@@H](NC(=O)O[C@@H]1C(=O)c2cc(Br)ccc2O[C@H]1c1cccc(OC)c1)C(C)C` [(2S)-2-[[(2S,3S)-6-bromo-4-keto-2-(3-methoxyphenyl)chroman-3-yl]oxycarbonylamino]-3-methyl-butyric acid methyl ester], the EC50 is 33.7 µM.

The molecule `O=C(/C=C/c1cccc([N+](=O)[O-])c1)Nc1cccc(NC(=O)c2cccs2)c1` [MLS000574752] displayed an EC50 of 3.68 µM.

In turn, `CSc1sc(-c2nnc(S)n2C)c2c1C=CCC2` [4-methyl-3-[3-(methylthio)-6,7-dihydro-2-benzothiophen-1-yl]-1H-1,2,4-triazole-5-thione] showed an EC50 of 15.7 µM.
